In publication PMC6600671, “Design and Synthesis of Indoleamine 2,3-Dioxygenase 1 Inhibitors and Evaluation of Their Use as Anti-Tumor Agents” (Molecules, 2019):
“And” between values parts separate entries of the source, which are not always exact repeats. Identical values can stand only once. “Also recorded” adds a separate entry of the source. Like-named read-outs stand apart in the source and are kept apart here. Values belong to the compound of their own block, whether it stands above or below them.

Assays:
[1] = tested on: IDO1; conditions: cited from earlier work
[2] = molecular target: rhIDO1 (Homo sapiens, UniProt P14902); experiment: Enzyme-based IDO1 activity assay (kynurenine absorbance at 492 nm); format: biochemical; conditions: for IC50: rhIDO1 0.05 μM, 37 °C, 45 min, read-out: IDO IC50; for inhibition at 50 µM: shown when calculated IC50 >50 μM, read-out: IDO inhibition rate (%) at 50 μM
Protocol: (§1) The compounds on IDO1 or TDO activity were determined as follows: A standard reaction mixture (100 μL) containing 100 mM potassium phosphate buffer (pH 6.5), 40 mM ascorbic acid (neutralized with NaOH), 200 μg/mL catalase, 20 μM methylene blue and 0.05 μM rhIDO1 or rhTDO was added to the solution containing the substrate L-tryptophan and the test sample at a determined concentration. […] The yellow pigment derived from kynurenine was measured at 492 nm using a SYNERGY-H1 microplate reader (Biotek Instruments, Inc., Winooski, VT, USA). IC50 was analyzed using the GraphPad Prism 8.0 software (GraphPad Software, San Diego, CA, USA).

[3] = tested on: mouse melanoma cells B16F10; experiment: In vivo anti-tumor efficacy, B16F10 subcutaneous xenograft model; parameters: species or system mice; conditions: 60 mg/kg/day, 19 days treatment
Protocol: C57BL/6 mice were obtained from Beijing Vital River Laboratory Animal Technology Co., Ltd. (Beijing Vital River Laboratory Animal Technology Co., Ltd, Beijing, China). Studies involving mice were approved by the Experimental Animal Management and Welfare Committee at the Institute of Materia Medica, Peking Union Medical College.
(§2) The mouse melanoma cells B16F10 were cultured and harvested in saline. At day 0 of the experiment, 1 × 10^6 cells were injected subcutaneously into mice, and treatment was initiated at day 1 following the mice enrolled randomly in control and experimental groups. For control group, 0.5% CMCNa was orally administered every day. Compound DX-03-12 was dissolved in 0.5% CMC for oral treatment or dissolved in saline for intraperitoneal treatment. When the mice were sacrificed, the tumors were stripped and weighted. […] The statistical analysis was performed with GraphPad Prism 8.0 software and the significance level was evaluated with a one-way ANOVA model.

[4] = tested on: NCI-H460 human lung cancer cell line; experiment: Cell viability MTT assay, 72 h; format: cell-based; conditions: for inhibition at 50 µM: shown when calculated IC50 >50 μM, read-out: H460 inhibition rate (%) at 50 μM
Protocol: (§3) B16-F10 mouse melanoma cells, NCI-H460 human lung cancer cell line and MCF7 were obtained from American Type Culture Collection (ATCC). All the cell lines were cultured with Dulbecco’ modified Eagle’s medium (DMEM) (Invitrogen Corporation, Waltham, MA, USA) supplemented with 10% fetal bovine serum (FBS) (Hyclone, Waltham, MA, USA) and 1% penicillin streptomycin (Invitrogen) at 37 °C in 5% CO2.
(§4) The in vitro inhibitory effects of the compounds were measured by MTT assay. Briefly, different kinds of cells were plated in 96-well plates at a density of 2000/well. After attachment for overnight at 37 °C, the cells were treated with the compounds at various concentrations. After 72 h culture, the MTT reagent was added to each well, and plates were incubated for another 4 h at 37 °C. Then, the blue-purple crystal formamidine was dissolved in DMSO after discarding the supernatant. Samples were measured using microplate reader at a wavelength of 570 nm (Biotek Instruments, Inc., Winooski, VT, USA). IC50 values were calculated with GraphPad Prism 8.0 software.

[5] = tested on: MCF7; experiment: Cell viability MTT assay, 72 h; format: cell-based; conditions: Homo sapiens; for inhibition at 50 µM: shown when calculated IC50 >50 μM, read-out: MCF7 inhibition rate (%) at 50 μM
Protocol: as §3, §4

[6] = Body weight and white blood cells in B16F10 xenograft mice; format: in vivo; conditions: 30 or 60 mg/kg/day oral or i.p.
Protocol: as §2

[7] = Single dose pharmacokinetic study in male ICR mice; format: in vivo; conditions: for half-life: read-out: t1/2β (converted)
Protocol: The animal Care and Welfare Committee of Institute of Materia Medica, Chinese Academy of Medical Sciences approved all animal care, housing, and laboratory procedures. Male ICR mice were used in the single dose pharmacokinetic studies. Compound DX-03-12 was prepared as 3 mg/mL suspension with 0.5% CMC (containing 0.3% Tween 80) for oral use and was formulated as 3 mg/mL solution with 5% DMSO in saline for intravenous injection. Twenty mice were divided into two groups, 10 in each group. After fasting 12 h with free access to water, mice were treated with a 3 mg/kg i.v. or 30 mg/kg oral dose of compound DX-03-12. Blood samples (50 µL) were collected at 5, 15, 30 min, 1, 2, 4, 6, 8, 12 and 24 h after oral administration and 2, 5, 15, 30 min, 1, 2, 4, 6, 8, 12 and 24 h after intravenous injection. After centrifugation, the plasma samples (15 µL) were precipitated by five volumes of acetonitrile. The supernatant were analyzed by liquid chromatography/tandem mass spectrometry (Agilent Technologies, Santa Clara, CA, USA) with a Zobax C18 column (50 mm × 2.1 mm, 3.5 µm). Compound detection was performed with the mass spectrometer in MRM (multiple reaction monitoring, Agilent Technologies, Santa Clara, CA, USA) negative ionization mode. The selected reaction monitoring transitions were m/z 348.5→160 for compound DX-03-12. The pharmacokinetic parameters were calculated with WinNonlin software V6.3 using non-compartmental analysis (Pharsight Corporation, Mountain View, CA, USA).

[8] = molecular target: rhTDO (Homo sapiens, UniProt P48775); experiment: Enzyme-based TDO activity assay (kynurenine absorbance at 492 nm); format: biochemical; conditions: for inhibition at 50 µM: shown when calculated IC50 >50 μM, read-out: TDO inhibition rate (%) at 50 μM
Protocol: as §1

[9] = tested on: pathway; conditions: reported value; cited from earlier work
[10] = Figure 1, reported IDO1 inhibitors
[11] = mouse, plasma, PO 30 mg/kg, male ICR mice
[12] = mouse, plasma, iv 3 mg/kg, male ICR mice

rhIDO1, sequence (P14902 whole entry): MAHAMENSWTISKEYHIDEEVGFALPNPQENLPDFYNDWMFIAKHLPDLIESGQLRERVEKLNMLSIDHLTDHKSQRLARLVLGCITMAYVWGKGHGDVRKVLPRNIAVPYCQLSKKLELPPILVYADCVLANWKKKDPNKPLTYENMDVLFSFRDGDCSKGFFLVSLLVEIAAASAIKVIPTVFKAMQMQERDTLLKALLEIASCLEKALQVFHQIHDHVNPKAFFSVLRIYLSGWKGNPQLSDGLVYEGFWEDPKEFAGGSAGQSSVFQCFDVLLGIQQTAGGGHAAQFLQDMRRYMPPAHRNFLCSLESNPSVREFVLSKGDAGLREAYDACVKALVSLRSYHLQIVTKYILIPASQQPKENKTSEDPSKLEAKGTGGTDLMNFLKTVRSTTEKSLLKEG
rhTDO, sequence (P48775 whole entry): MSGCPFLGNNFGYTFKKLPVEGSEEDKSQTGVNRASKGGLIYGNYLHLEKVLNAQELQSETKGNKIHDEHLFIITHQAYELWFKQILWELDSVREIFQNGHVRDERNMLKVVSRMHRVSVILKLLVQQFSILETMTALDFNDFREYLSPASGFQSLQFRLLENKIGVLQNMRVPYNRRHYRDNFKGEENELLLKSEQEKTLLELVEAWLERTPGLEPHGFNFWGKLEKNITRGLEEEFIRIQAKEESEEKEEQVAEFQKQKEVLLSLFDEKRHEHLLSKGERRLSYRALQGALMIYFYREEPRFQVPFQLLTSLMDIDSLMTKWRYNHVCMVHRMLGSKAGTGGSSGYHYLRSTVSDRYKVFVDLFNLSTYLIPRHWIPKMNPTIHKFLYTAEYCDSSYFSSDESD

SMILES: Cc1ccc(-c2csc3ncc(C(=O)NCCc4cccc(Cl)c4)n23)cc1 [AMCL-17g]
IC50 ([1]; reported value): 0.077 µM

SMILES: Cc1ccc(NC(=O)Nc2cc([C@H]3C[C@H]3C(=O)O)ccc2N(CC(C)C)CC(C)C)cc1 [BMS-978587]
IC50 [1, 10]: 0.0071 µM

SMILES: C[C@@H](C(=O)Nc1ccc(Cl)cc1)C1CCC(c2ccnc3ccc(F)cc23)CC1 (some centres unmarked) [BMS-986205]
IC50 [1, 10]: 0.0017 µM

IC50 [2]: 0.3 µM
t1/2β ([7]; PO 30 mg/kg, male ICR mice, 30 mg/kg): 4.6 h and 4.61 h
Vss ([7]; iv 3 mg/kg, male ICR mice, 3 mg/kg): 10.1 L/kg
plasma clearance as % of mouse hepatic blood flow ([7]; iv 3 mg/kg, hepatic blood flow 90 mL/min/kg): ~36%
Vd ([7]; male, ICR, mouse, plasma, iv, 3 mg/kg, iv 3 mg/kg, male ICR mice, read-out: Vss): 10 L/kg
half-life ([7]; male, ICR, mouse, plasma, iv, 3 mg/kg, iv 3 mg/kg, male ICR mice): 3.49 h
bioavailability ([7]; male, ICR, mouse, plasma, oral, 30 mg/kg, PO 30 mg/kg vs iv 3 mg/kg, male ICR mice, read-out: F% (oral bioavailability)): ~96%
half-life ([7]; male, ICR, mouse, plasma, po, 30 mg/kg, PO 30 mg/kg, male ICR mice): ~4.6 h
AUC(0-inf) [7, 11]: 13100 ng·h/mL
AUC(0-t) [7, 11]: 12900 ng·h/mL
Tmax [7, 11]: 1 h
AUC(0-inf) [7, 12]: 1500 ng·h/mL
AUC(0-t) [7, 12]: 1350 ng·h/mL
Tmax [7, 12]: 0.033 h
clearance [7, 12]: 33.3 mL/min/kg
Cmax ([7]; mouse, PO 30 mg/kg, male ICR mice, plasma): 2960 ng/mL
Cmax ([7]; mouse, iv 3 mg/kg, male ICR mice, plasma): 2140 ng/mL
TDO inhibition, in words [8]: marginal
inhibition at 50 µM [8]: 36.4%
SMILES: O=S(=O)(NCCCOc1ccccc1-c1cnc[nH]1)C(F)(F)F [DX-03-12, N-(3-(2-(1H-imidazol-5-yl)phenoxy)propyl)-1,1,1-trifluoromethane sulfonamide]
decrease in tumor weight (tumor growth inhibition) vs control ([3]; i.p.): 72.3%
decrease in tumor weight (tumor growth inhibition) vs control ([3]; oral): 72.2%
inhibition at 50 µM [4]: 19.3%
inhibition at 50 µM [5]: 6.6%
effect on body weight of the mice [6]: no obvious weight loss; also recorded: no obvious effect
effect on peripheral white blood cells [6]: no obvious effect

IC50 [2]: 0.5 µM
IC50 ([4]; unit inferred, read-out: H460 IC50 or %): 13.8 µM
IC50 ([5]; unit inferred, read-out: MCF7 IC50 or %): 21.4 µM
TDO inhibition, in words [8]: marginal
inhibition at 50 µM [8]: 38.9%
SMILES: O=C(NCCCOc1ccccc1-c1cnc[nH]1)Nc1ccc(C(F)(F)F)cc1 [DX-03-13, 1-(3-(2-(1H-imidazol-5-yl)phenoxy)propyl)-3-(4-(trifluoromethyl)phenyl)urea]

inhibition at 50 µM [2]: 46.2%
IC50 ([4]; read-out: H460 IC50): 12 µM
IC50 ([5]; read-out: MCF7 IC50): 8.53 µM
inhibition at 50 µM [8]: 26.5%
SMILES: COc1ccc(Cl)cc1-c1cn(Cc2ccc(C(F)(F)F)cc2)cn1 [DX-04-01, 4-(5-chloro-2-methoxyphenyl)-1-(4-(trifluoromethyl)benzyl)-1H-imidazole]

inhibition at 50 µM [2]: 9.7%
IC50 ([4]; read-out: H460 IC50): 7.69 µM
IC50 ([5]; read-out: MCF7 IC50): 35.7 µM
inhibition at 50 µM [8]: 18%
SMILES: Oc1ccc(Cl)cc1-c1cn(Cc2ccc(C(F)(F)F)cc2)cn1 [DX-04-02, 4-chloro-2-(1-(4-(trifluoromethyl)benzyl)-1H-imidazol-4-yl)phenol]

IDO1 inhibition, in words [2]: moderate
IC50 [2]: 23 µM
IC50 ([4]; read-out: H460 IC50): 22.9 µM
IC50 ([5]; read-out: MCF7 IC50): 42.6 µM
inhibition at 50 µM [8]: 22.4%
SMILES: Oc1ccc(Cl)cc1-c1cn(Cc2ccc(C(F)(F)F)cc2)nn1 [DX-04-05, 4-chloro-2-(1-(4-(trifluoromethyl)benzyl)-1H-1,2,3-triazol-4-yl)phenol]

inhibition at 50 µM [2]: 13.5%
IC50 ([4]; read-out: H460 IC50): 48.4 µM
IC50 ([5]; read-out: MCF7 IC50): 49.3 µM
inhibition at 50 µM [8]: 23.6%
SMILES: COc1ccc(Cl)cc1-c1cn(Cc2ccc(C(F)(F)F)cc2)nn1 [DX-04-06, 4-(5-chloro-2-methoxyphenyl)-1-(4-(trifluoromethyl)benzyl)-1H-1,2,3-triazole]

inhibition at 50 µM [2]: 38.2%
IC50 ([4]; read-out: H460 IC50): 27.4 µM
IC50 ([5]; read-out: MCF7 IC50): 12.3 µM
inhibition at 50 µM [8]: 21.4%
SMILES: Oc1ccc(Cl)cc1-c1nn[nH]c1-c1ccc(C(F)(F)F)cc1 [DX-04-07, 4-chloro-2-(5-(4-(trifluoromethyl)phenyl)-1H-1,2,3-triazol-4-yl)phenol]

inhibition at 50 µM [2]: 21.2%
inhibition at 50 µM [8]: 11.2%
SMILES: COc1ccc(Cl)cc1-c1nn[nH]c1-c1ccc(C(F)(F)F)cc1 [DX-04-08, 4-(5-chloro-2-methoxyphenyl)-5-(4-(trifluoromethyl)phenyl)-1H-1,2,3-triazole]
inhibition at 50 µM [4]: 7.5%
inhibition at 50 µM [5]: 24.9%

SMILES: O=C1c2ccccc2-n2c1nc1ccccc1c2=O [Tryptanthrin]
IC50 [1, 10]: 0.534 µM

SMILES: Cn1cc(C[C@@H](N)C(=O)O)c2ccccc21 [indoximod]
IC50 [9]: 0.45 µM
